The results in this text go back to patent publication US20120258974A1, “USE OF A2B ADENOSINE RECEPTOR ANTAGONISTS FOR TREATING HEART FAILURE AND ARRHYTHMIA IN POST-MYOCARDIAL INFARCTION PATIENTS” (GILEAD SCIENCES, INC., priority 2011, published 2012).

Structures are written as SMILES.

Test [1] has as its system CD1 mice with experimental AMI (permanent coronary artery ligation). As to the kind of experiment: Transthoracic echocardiography of cardiac remodeling after AMI (Example 4). Type of test: in vivo, mouse. The procedure:
(§1) Adult out-bred male CD1 mice (8-12 weeks of age) were supplied by Harlan Sprague Dawley (Indianapolis, Ind.). The experiments were conducted under the guidelines of laboratory animals for biomedical research published by National Institutes of Health (No. 85-23, revised 1996). The study protocol was approved by the Virginia Commonwealth University Institutional Animal Care and Use Committee. Experimental AMI was induced by permanent coronary artery ligation in order to induce a large non-reperfused infarct involving approximately 30% of the left ventricle and leading to an ischemic dilated cardiomyopathy (Mezzaroma et al. Proc Natl Acad Sci 2011—in press and Abbate et al. Circulation 2008; 117:2670-83). Briefly, mice were orotracheally intubated under anesthesia (pentobarbital 50 to 70 mg/kg), placed in the right lateral decubitus position, then subjected to a left thoracotomy, pericardiectomy, and ligation of the proximal left coronary artery. The chest was closed and the animals were allowed to recover. The mice surviving surgery were randomly assigned to the different groups of treatment (N=6-15 per group). Sham operations were performed wherein animals underwent the same surgical procedure without coronary artery ligation (N=4-8 per group).
The A2B AdoR antagonist, Compound A, was obtained from Gilead Sciences, Foster City, Calif. Mice were randomly assigned to treatment with Compound A (4 mg/kg) or matching dose of vehicle administered intraperitoneally (final volume 0.13 mL) every 12 hours for 14 days starting immediately after coronary artery ligation surgery. An additional group of mice received a lower dose of Compound A (2 mg/kg) to explore a dose-response relationship. Two additional groups of mice received Compound A (4 mg/kg) starting 1 hour after surgery to simulate a clinical scenario of treatment delay. […]
All mice underwent transthoracic echocardiography at baseline (before surgery), and at 7, 14 and 28 days after surgery (prior to sacrifice). […] This example measured the left ventricular (LV) end-diastolic and end-systolic areas at B-Mode and the LV end-diastolic diameter (LVEDD), LV end-systolic diameters (LVESD), LV anterior wall diastolic thickness (LVAWDT), and LV posterior wall diastolic thickness (LVPWDT) at M-Mode, as previously described (Abbate et al. Circulation 2008; 117:2670-83; Toldo et al. PloS One 2011; 6:e18102) and according to the American Society of Echocardiography recommendations (Gardin et al. J Am Soc Echocardiogr 2002; 15:272-90). LV fractional shortening (FS), LV ejection fraction (EF), LV mass and eccentricity (LVEDD/LVPWDT ratio) were calculated (Abbate et al. Circulation 2008; 117:2670-83; Toldo et al. PloS One 2011; 6:e18102; Gardin et al. J Am Soc Echocardiogr 2002; 15:272-90). The transmitral and left ventricular out flow tract Doppler spectra were recorded from an apical 4-chamber views, and the myocardial performance index (MPI or Tei index) was calculated as the […] of the isovolumetric contraction and relaxation time divided by the ejection time (Tei et al. Am J Cardiol 1995; 26:357-366). LV stroke volume was calculated using the Velocity-Time Integral (VTI) of the LV outflow tract flow multiplied by the LV outflow tract area, and cardiac output was calculated multiplying LV stroke volume by the heart rate (Abbate et al. Circulation 2008; 117:2670-83; Toldo et al. PloS One 2011; 6:e18102; Gardin et al. J Am Soc Echocardiogr 2002; 15:272-90). […]

Test [2] deals with rats with MI (25 minutes coronary occlusion followed by reperfusion). Description: Conduction velocities in LV myocardium, optical mapping, rat post-MI model (Example 6). The class given is in vivo. The following applies: 5 week post-MI. The procedure:
The effects of Compound A in a rat model of post-MI remodeling and VT were determined. MI was caused by 25 minutes occlusion at the left anterior descending coronary ligation followed by reperfusion. One week later, rats were administered either vehicle or Compound A (100 mg/kg) once daily by oral gavage. Serial echocardiograms (ECHOs) to measure LV ejection fraction (LVEF), stroke volume and LV end systolic volume (LVESV) were obtained at baseline, 1 week and 5 week post-MI. Electrophysiological studies, optical mapping, histology and biomarker analysis were conducted at 5 week post-MI.
Abnormal electrical impulse conduction in the infarct border zone (IBZ) is important in the pathogenesis of post-MI arrhythmias. As shown in the conduction vector maps (FIG. 13A-B), the vehicle control group has much slower conduction velocity than the Compound A treated animals. To quantify the impact of Compound A on conduction properties, conduction velocities (CVs) were measured for infarct, border, and normal zones of LV myocardium. CVs in normal zones were fastest among all zones and were similar between placebo and Compound A groups (FIG. 14A). […] Finally, CVs in IBZs of both groups were in between those of non-infarct and infarct zones.

Test [3] has as its system CD45 expression (leukocytes) in the heart. Description: Inflammatory infiltrate: CD45 expression in the heart by Western blot (Example 4). The class given is in vivo, mouse. The following applies: 72 hours after AMI; 4 mg/kg i.p. twice daily. The procedure: as §1, with “The mice surviving surgery were randomly assigned to the different groups of treatment (N=6-15 per group). Sham operations were performed wherein animals underwent the same surgical procedure without coronary artery ligation (N=4-8 per group).” left out
In order to quantify the inflammatory infiltrate in the heart during AMI, this example measured CD45 expression (a marker for leukocytes) in the heart using Western Blot. […] The band intensity was determined by densitometric analysis using the Scion Image software and the results were expressed as percentage increase in intensity compared to the control sham samples.
Background: Immunoblotting shows a protein as a band on a membrane.

As for `CCCn1c(=O)c2[nH]c(-c3cnn(Cc4cccc(C(F)(F)F)c4)c3)nc2n(CC)c1=O` [Compound A, 3-ethyl-1-propyl-8-(1-(3-(trifluoromethyl)benzyl)-1H-pyrazol-4-yl)-1H-purine-2,6(3H,7H)-dione], in test [1] (AMI mice), the “myocardial diastolic/systolic performance (myocardial performance index)” value is on record as “preservation”; the “right ventricular enlargement and dysfunction” value is “less”. Further, in test [1] (LV systolic function significantly greater in Compound A group), the “absolute difference in mean LVEF vs vehicle” value was found to be 5%. In test [1] (at 28 days), the “reduction of LV enlargement after AMI” value is on record as “approximately 40%”. For the same molecule, in test [1] (every 12 hours from surgery for 14 days, at 7 days, maintained at 14 and 28 days), the “left and right ventricular enlargement and dysfunction” value is listed as “significant attenuation”. In addition, the “conduction velocities in normal zones” value in test [2] (vs placebo) is “similar”. In test [2] (vs placebo control), the “conduction velocities in IBZs” value was “significantly faster” and the “conduction velocities in infarct zones” value is given as “significantly improved”. Further, the “intensity of the leukocyte (CD45+) infiltrate, CD45 expression at Western blot” value in test [3] is “significantly reduced”.
